In data set [1] the test system is RIM tumour (rhabdomyo-sarcoma). In words: In vivo evaluation of SPECT tracers in RIM tumour (rhabdomyo-sarcoma)-bearing rats. The arrangement: species or system rat. An excerpt:
In the research that led to the invention two new potential SPECT tracers, 2-^123I-tyrosine (2-^123I-Tyr) and 2-^123-I-phenylalanine, were developed.

Data set [2] concerns R1M tumour. As to the kind of experiment: PET of R1M tumour bearing rat after intravenous injection. In kind it is in vivo. As to conditions: 120 Mbq intravenously, FIG. 2. An excerpt:
FIG. 2: PET of R1M tumour bearing rat. The tumour is visible at the upper right, the pancreas in the middle and the bladder under. 120 Mbq L-2-^18F-methyl-phenylalanine was intravenously injected.
In Vivo Rat Evaluation of L-2-18F-methyl-phenylalanine in a R1M Tumour Bearing Rat by Means of PET
The latter is typical for rodent.

In data set [3] the target is T1, L-transport system 1 (LAT1) (Rattus norvegicus, UniProt Q63016).
T1 construct: endogenous in cells; host or cells: R1M rat rhabdomyosarcoma cells
In words: Inhibition of L-3H-phenylalanine uptake in rat rhabdomyo-sarcoma (R1M) cells in vitro. In kind it is cell-based. As to the method: FIG. 1: Inhibition of ^3H-Phe/Phe uptake in R1M cells in vitro by L-2-F-methyl-PHE. The common intercept proves that the inhibition is competitive and that L-2-F-methyl-Phe uses the same transport system as L-Phe.
The affinity of L-2-F-methyl-phenylalanine for uptake by the L-transport system 1 (LAT1) in cancer cells (rat rhabdomyo-sarcoma cells) was determined by measuring the inhibition of the uptake of L-^3H-phenylalanine after 15 minutes incubation in HEPES buffer of pH 7.4 containing appropriate amounts of L-phenylalanine and of L-2-F-methyl-phenylalanine. The uptake was saturable and followed the typical Michaelis-Menten relation allowing to draw Lineweaver-Burk (FIG. 1) plots.

Data set [4] has as its system R1M cells. As to the kind of experiment: Preliminary uptake experiments in R1M cells in vitro. The note with it: buffer simulating in vivo conditions. Format: cell-based. An excerpt:
The inventors considered based on the results obtained with ^18F-FET and their own results with 2-^123I-Phe and 2-^123I-Tyr that the aromatic amino acid properties are conserved after substitution of an O-ethyl group and even in the presence of a voluminous iodine atom. This invention is thus based on the new approach to introduce an alkyl side chain on the phenyl ring to facilitate introduction of the radioactive atom. They thus provided an ^18F-alkyl-phenyl structure in phenylalanine and tyrosine, either ortho, meta or para. Examples are ^18F-CH[…] or ^18F-CH2-CH[…] and 2-^18F-CH[…] or 2-^18F-CH2-CH[…]. This reduces the labelling chemistry to direct conventional nucleophilic aliphatic substitution on the alkylphenylic side branch of the L-amino acid. In this approach cumbersome stereospecific synthesis is not required. The same strategy was followed for the radio-fluorination of the aliphatic amino acids leucine and isoleucine. […] Since aliphatic-substituted F hardly changes the pharmacology, it follows that these aliphatic amino acids are also suitable molecules for radio-fluorination.

T1 sequence (Q63016 whole entry): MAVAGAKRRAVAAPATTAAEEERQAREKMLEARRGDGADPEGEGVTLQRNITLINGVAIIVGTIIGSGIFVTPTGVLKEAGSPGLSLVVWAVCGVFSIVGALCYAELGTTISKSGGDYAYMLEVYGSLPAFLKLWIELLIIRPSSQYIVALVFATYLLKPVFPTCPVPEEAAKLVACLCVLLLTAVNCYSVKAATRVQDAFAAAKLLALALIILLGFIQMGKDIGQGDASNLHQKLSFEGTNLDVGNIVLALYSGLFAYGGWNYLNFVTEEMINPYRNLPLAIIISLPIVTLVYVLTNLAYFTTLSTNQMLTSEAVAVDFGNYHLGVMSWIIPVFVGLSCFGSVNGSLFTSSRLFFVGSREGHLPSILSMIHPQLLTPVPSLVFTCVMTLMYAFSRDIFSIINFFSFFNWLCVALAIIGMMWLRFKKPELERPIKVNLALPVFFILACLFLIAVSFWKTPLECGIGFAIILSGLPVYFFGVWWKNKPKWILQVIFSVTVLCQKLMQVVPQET
T1 sequence (Q794F9 whole entry partner): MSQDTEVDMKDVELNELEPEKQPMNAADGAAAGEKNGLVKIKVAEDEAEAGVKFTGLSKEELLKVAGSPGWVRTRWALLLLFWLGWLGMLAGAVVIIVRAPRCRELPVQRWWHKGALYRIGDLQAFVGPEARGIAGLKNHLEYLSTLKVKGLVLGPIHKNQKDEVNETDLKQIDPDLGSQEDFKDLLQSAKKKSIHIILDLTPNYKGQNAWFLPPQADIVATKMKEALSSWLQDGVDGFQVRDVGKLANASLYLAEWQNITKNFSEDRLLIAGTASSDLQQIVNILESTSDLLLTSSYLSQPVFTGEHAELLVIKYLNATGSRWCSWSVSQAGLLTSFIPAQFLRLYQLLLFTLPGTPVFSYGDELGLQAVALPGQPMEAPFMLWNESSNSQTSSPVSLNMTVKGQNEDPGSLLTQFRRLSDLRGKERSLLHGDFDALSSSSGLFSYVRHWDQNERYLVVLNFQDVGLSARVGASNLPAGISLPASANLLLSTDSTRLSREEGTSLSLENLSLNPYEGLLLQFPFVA

Turning to `N[C@@H](Cc1ccccc1[123I])C(=O)O` [2-^123-I-phenylalanine], in data set [1] (rat, in vivo), the “activity in the kidneys relative to IMT” value was found to be 10 times less, the “high brain uptake observed” value is reported as “no”, the renal accumulation result is recorded as “no renal accumulation” and the “uptake in the tumours” value was “high uptake”.
As to `N[C@@H](Cc1ccc(O)cc1[123I])C(=O)O` [2-^123I-tyrosine], in data set [1] (RIM tumour-bearing rats), the “activity in the kidneys relative to IMT” value was determined as 10 times less, the “high brain uptake observed” value is “no” and the renal accumulation result is reported as “no renal accumulation”. In addition, in data set [1] (RIM tumour-bearing rats, comparable with IMT), the “uptake in the tumours” value is “high uptake”.
For `N[C@@H](Cc1ccccc1C[18F])C(=O)O` [L-2-18F-methyl-phenylalanine], in data set [2], the “accumulation in the kidneys or other organs (PET)” value was “No accumulation”; the “route of clearance (PET)” value is reported as “cleared through the kidneys to the bladder”; the “uptake in the tumour and pancreas (PET)” value is given as “high uptake”.
`N[C@@H](Cc1ccccc1CF)C(=O)O` [L-2-F-methyl-phenylalanine] yielded an inhibitory constant (Ki) in data set [3] (15 minutes incubation, HEPES buffer pH 7.4, rat rhabdomyo-sarcoma cells) of 76 µM. Further, the “type of inhibition of 3H-Phe/Phe uptake (Lineweaver-Burk plots)” value in data set [3] (R1M cells in vitro, FIG. 1) is given as “competitive”.
Consider `N[C@@H](Cc1ccccc1)C(=O)O` [L-phenylalanine], for which the Km in data set [3] (same conditions: 15 minutes incubation, HEPES buffer pH 7.4, rat rhabdomyo-sarcoma cells) was 65 µM.
Regarding `CC(C)C[C@H](N)C(=O)O` [^3H-leucine], in data set [4], the “uptake in R1M cells” value was “comparable with 3H-Tyr and ^3H-Phe”.
Same read-out and setting: the value for ^3H-isoleucine was “comparable with 3H-Tyr and ^3H-Phe”.

The term Ki denotes a dissociation constant, usually derived from enzyme kinetics or from competition with a known ligand. Read a low Ki as higher affinity. One may read the Km as the substrate concentration at which the rate is half of its maximum.
